Earlier results in patent publication US20120035233A1 (priority 2009, published 2012).
Read-outs that look alike come from different tables or passages of the source.

solubility (chloroform): slightly soluble
solubility (ethanol (95%)): slightly soluble
solubility (ether): very slightly soluble
solubility (methanol): freely soluble
solubility (water): very slightly soluble
SMILES: Clc1ccc(COC(Cn2ccnc2)c2ccc(Cl)cc2Cl)c(Cl)c1 (centres unmarked) [Miconazole Nitrate, 1-[2-(2,4-Dichlorophenyl)-2-[(2,4-dichlorophenyl)methoxy]ethyl]-1H-imidazole]
